Data reported in patent publication US12473262B2, “Aryl hydrocarbon receptor activators” (Oregon State University, priority 2019, dated 2025).

Assays:
[1] = target: aryl hydrocarbon receptor (AhR) (Mus musculus (Mouse), UniProt P30561); experiment: AhR ligand screening: AhRE-luciferase reporter in transfected Hepa1 cells; assay type: cell-based; settings: for Fold @ 1 nM: fold change of luciferase expression at 1 nM test compound relative to vehicle (0.1% DMSO); for Fold @ 100 nM: fold change of luciferase expression at 100 nM test compound relative to vehicle (0.1% DMSO); for Fold @ 10 uM: fold change of luciferase expression at 10 uM test compound relative to vehicle (0.1% DMSO); for Fold relative to benchmark @ 100 nM: luciferase expression at 100 nM test compound relative to 100 nM benchmark compound 11-cl-BBQ
aryl hydrocarbon receptor (AhR), sequence (P30561 10-805): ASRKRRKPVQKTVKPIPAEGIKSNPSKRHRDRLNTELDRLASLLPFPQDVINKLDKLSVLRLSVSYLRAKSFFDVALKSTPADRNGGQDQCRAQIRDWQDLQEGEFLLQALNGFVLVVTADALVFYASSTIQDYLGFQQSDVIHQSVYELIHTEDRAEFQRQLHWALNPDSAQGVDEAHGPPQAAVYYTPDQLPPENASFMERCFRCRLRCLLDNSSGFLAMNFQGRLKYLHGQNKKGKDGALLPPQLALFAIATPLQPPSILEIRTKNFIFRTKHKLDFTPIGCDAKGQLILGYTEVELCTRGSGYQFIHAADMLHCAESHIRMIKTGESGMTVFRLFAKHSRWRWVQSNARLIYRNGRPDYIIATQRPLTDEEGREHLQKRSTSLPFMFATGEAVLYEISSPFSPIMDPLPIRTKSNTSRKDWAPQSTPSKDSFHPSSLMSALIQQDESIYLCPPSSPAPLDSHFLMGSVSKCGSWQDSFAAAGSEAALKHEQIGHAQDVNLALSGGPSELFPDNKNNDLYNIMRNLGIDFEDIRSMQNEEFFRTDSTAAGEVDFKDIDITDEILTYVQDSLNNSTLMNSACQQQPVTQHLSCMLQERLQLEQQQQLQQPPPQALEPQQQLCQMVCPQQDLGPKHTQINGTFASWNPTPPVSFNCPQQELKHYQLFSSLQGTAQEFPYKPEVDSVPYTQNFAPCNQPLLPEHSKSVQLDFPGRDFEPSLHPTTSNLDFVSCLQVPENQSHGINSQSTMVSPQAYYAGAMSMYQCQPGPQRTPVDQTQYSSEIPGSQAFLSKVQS
aryl hydrocarbon receptor (AhR), sequence (P53762 whole entry partner): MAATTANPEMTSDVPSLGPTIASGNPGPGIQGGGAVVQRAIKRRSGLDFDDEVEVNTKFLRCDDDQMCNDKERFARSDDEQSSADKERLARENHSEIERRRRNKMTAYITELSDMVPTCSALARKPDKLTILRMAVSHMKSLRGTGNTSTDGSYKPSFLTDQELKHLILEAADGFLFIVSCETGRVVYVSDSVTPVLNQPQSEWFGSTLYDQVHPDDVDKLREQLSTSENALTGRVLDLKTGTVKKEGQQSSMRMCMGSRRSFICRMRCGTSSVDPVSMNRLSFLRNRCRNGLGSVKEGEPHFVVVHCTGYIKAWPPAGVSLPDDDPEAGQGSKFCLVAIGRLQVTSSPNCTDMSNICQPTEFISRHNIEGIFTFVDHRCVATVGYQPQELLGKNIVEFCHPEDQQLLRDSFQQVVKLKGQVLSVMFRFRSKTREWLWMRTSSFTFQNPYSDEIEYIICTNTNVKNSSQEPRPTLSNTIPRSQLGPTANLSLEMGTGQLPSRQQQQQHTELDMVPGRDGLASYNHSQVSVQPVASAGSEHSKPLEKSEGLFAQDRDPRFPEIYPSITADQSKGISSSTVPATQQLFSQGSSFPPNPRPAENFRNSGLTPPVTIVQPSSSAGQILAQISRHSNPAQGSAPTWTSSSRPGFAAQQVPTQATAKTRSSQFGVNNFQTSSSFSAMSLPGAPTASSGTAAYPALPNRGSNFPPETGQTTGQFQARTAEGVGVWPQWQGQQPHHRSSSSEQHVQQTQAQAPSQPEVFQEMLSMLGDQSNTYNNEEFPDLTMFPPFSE
Outline: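 Mouse Hepa1 cells transfected with an AhRE-luciferase reporter were plated at 1×10^4 cells/well, grown overnight, then exposed to compounds. Cell lysates were assayed for luciferase by luminometry, with results given as fold induction over 0.1% DMSO vehicle.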

[2] = Liver microsomal stability, rat; settings: for Rem @ RLM × 30 min: rat liver microsomes, 1 μM compound, 0.5 mg/ml protein; for half-life at 1 μM / microsomal CLint at 1 μM: rat, liver microsomes, pH 7.4
Procedure: (§1) The assessment of metabolic stability of testing compounds was performed using human, mouse, rat, dog and monkey liver microsomes (20 mg protein/ml). Each reaction mixture contained 42.5 μL of 0.1 M potassium phosphate buffer pH 7.4, containing respective LM protein (final concentration 0.5 mg/ml). 2.5 μL of the compound stock solution was added in it (1 μM final concentration). The reaction was initiated by the addition of 5 μL NADPH solution (final Concentration 1 mM). At different time points (0, 5, 15, and 30 minutes), samples were quenched with 200 μL of cold acetonitrile containing ISTD Propranolol. Samples were centrifuged at 3500 rpm for 20 mM at 4° C. Supernatant was subjected to LC-MS/MS analysis for quantification. Verapamil was used as a positive control.

[3] = Liver microsomal stability, human; settings: for Rem @ HLM × 30 min: human liver microsomes, 1 μM compound, 0.5 mg/ml protein; for half-life at 1 μM / microsomal CLint at 1 μM: human, liver microsomes, pH 7.4
Procedure: as §1

[4] = Liver microsomal stability, mouse; settings: for Rem @ MLM × 30 min: mouse liver microsomes, 1 μM compound, 0.5 mg/ml protein; for half-life at 1 μM / microsomal CLint at 1 μM: mouse, liver microsomes, pH 7.4
Procedure: as §1

Row | Compound | Fold @ 1 nM [1] | Fold @ 100 nM [1] | Fold @ 10 uM [1] | Fold relative to benchmark @ 100 nM [1] | Rem @ RLM × 30 min [2] | half-life at 1 μM [2] | microsomal CLint at 1 μM [2] | Rem @ HLM × 30 min [3] | half-life at 1 μM [3] | microsomal CLint at 1 μM [3] | Rem @ MLM × 30 min [4] | half-life at 1 μM [4] | microsomal CLint at 1 μM [4]
1 | O=C(c1cccc2ccccc12)C1CN(C(=O)c2ccccc2)c2ccc(Cl)cc21 (centres unmarked) [Compound 521] | 1 fold | 1 fold | 1 fold | 0.07 fold | 45.5% | 24.8 min | 56 µL/min/mg | 58.0% | 40.3 min | 34 µL/min/mg | 64.6% | 60.9 min | 23 µL/min/mg
2 | O=C(C1CC1)n1c(-c2cccc3ccccc23)nc2ccc(Cl)cc21 [Compound 774] | 1 fold | 21 fold | 28 fold | 0.84 fold | 45.5% | 31.9 min | 43.5 µL/min/mg | 52.7% | 36.3 min | 38.2 µL/min/mg | 28.2% | 19.3 min | 71.9 µL/min/mg
3 | O=C(c1ccc(SC(F)(F)F)cc1)c1c[nH]c2ccc(Cl)cc12 [Compound 884] | 1 fold | 2 fold | 16 fold | 0.04 fold | 23.1% | 14.3 min | 96.7 µL/min/mg | 81.2% | 98.8 min | 14 µL/min/mg | 22.2% | 13.9 min | 100 µL/min/mg
4 | O=C(c1cccc(Cl)c1Cl)c1c[nH]c2ccc(Cl)cc12 [Compound 889] | 1 fold | 1 fold | 5 fold | 0.02 fold | 33.5% | 25.6 min | 54.2 µL/min/mg | 30.2% | 22.6 min | 61.2 µL/min/mg | 43.5% | 33.9 min | 40.9 µL/min/mg
5 | O=C(c1ccc(Cl)cc1Cl)c1c[nH]c2ccc(Cl)cc12 [Compound 890] | 1 fold | 2 fold | 17 fold | 0.04 fold | 37.4% | 29 min | 47.8 µL/min/mg | 44.7% | 35.2 min | 39.4 µL/min/mg | 39.3% | 28.2 min | 49.1 µL/min/mg
6 | O=C(c1ccc2nc(-c3cccc4ccccc34)n(S(=O)(=O)c3ccc4ccccc4c3)c2c1)N1CCOCC1 [Compound 1389] | 1 fold | 1 fold | 3 fold | 0.03 fold |  |  |  |  |  |  |  |  | 
7 | COc1ccccc1S(=O)(=O)n1c(-c2cccc3ccccc23)nc2cc(C(=O)N3CCCCC3)ccc21 [Compound 1390] | 1 fold | 1 fold | 3 fold | 0.03 fold |  |  |  |  |  |  |  |  | 
8 | COc1ccccc1S(=O)(=O)n1c(-c2cccc3ccccc23)nc2ccc(C(=O)N3CCCCC3)cc21 [Compound 1391] | 1 fold | 1 fold | 1 fold | 0.03 fold |  |  |  |  |  |  |  |  | 
9 | O=C(c1ccc2c(c1)nc(-c1cccc3ccccc13)n2Cc1ccc(F)cc1)N1CCOCC1 [Compound 1403] | 1 fold | 2 fold | 20 fold | 0.07 fold |  |  |  |  |  |  |  |  | 
10 | O=C(c1ccc2nc(-c3cccc4ccccc34)n(Cc3ccc(F)cc3)c2c1)N1CCOCC1 [Compound 1404] | 1 fold | 1 fold | 6 fold | 0.03 fold |  |  |  |  |  |  |  |  | 
11 | O=C(c1ccc2c(c1)nc(-c1cccc3ccccc13)n2Cc1cccc2ccccc12)N1CCOCC1 [Compound 1408] | 1 fold | 1 fold | 4 fold | 0.03 fold |  |  |  |  |  |  |  |  | 
12 | O=C(c1ccc2nc(-c3cccc4ccccc34)n(Cc3cccc4ccccc34)c2c1)N1CCOCC1 [Compound 1409] | 1 fold | 1 fold | 4 fold | 0.03 fold |  |  |  |  |  |  |  |  | 
13 | O=C(c1ccc2nc(-c3cccc4ccccc34)n(Cc3ccc(SC(F)(F)F)cc3)c2c1)N1CCCCC1 [Compound 1412] | 1 fold | 1 fold | 6 fold | 0.03 fold |  |  |  |  |  |  |  |  | 

Continued, values first:

Row | Fold @ 1 nM [1] | Fold @ 100 nM [1] | Fold @ 10 uM [1] | Fold relative to benchmark @ 100 nM [1] | Rem @ RLM × 30 min [2] | half-life at 1 μM [2] | microsomal CLint at 1 μM [2] | Rem @ HLM × 30 min [3] | half-life at 1 μM [3] | microsomal CLint at 1 μM [3] | Rem @ MLM × 30 min [4] | half-life at 1 μM [4] | microsomal CLint at 1 μM [4] | Compound
14 | 1 fold | 15 fold | 20 fold | 0.6 fold | 27.5% | 16.3 min | 84.9 µL/min/mg | 28.3% | 16.4 min | 84.6 µL/min/mg | 23.9% | 14.6 min | 94.7 µL/min/mg | CCc1ccc(S(=O)(=O)n2c(-c3cccc4ccccc34)nc3ccc(Cl)cc32)cc1 [Compound 776]
15 | 1 fold | 20 fold | 24 fold | 0.8 fold | 43.1% | 24.4 min | 56.8 µL/min/mg | 44.4% | 24.6 min | 56.3 µL/min/mg | 18.0% | 12.1 min | 115 µL/min/mg | O=S(=O)(c1ccc(C(F)(F)F)cc1)n1c(-c2cccc3ccccc23)nc2cc(Cl)ccc21 [Compound 781]
16 | 1 fold | 16 fold | 44 fold | 0.55 fold | 57.1% | 36.5 min | 37.9 µL/min/mg | 54.2% | 33.9 min | 40.9 µL/min/mg | 49.3% | 29.4 min | 47.2 µL/min/mg | O=S(=O)(c1ccc2ccccc2c1)n1c(-c2cccc3ccccc23)nc2cc(Cl)ccc21 [Compound 785]
17 | 1 fold | 31 fold | 40 fold | 1.07 fold | 25.6% | 14.8 min | 93.8 µL/min/mg | 27.4% | 16.1 min | 86.2 µL/min/mg | 22.1% | 13.4 min | 104 µL/min/mg | O=S(=O)(c1ccc2ccccc2c1)n1c(-c2cccc3ccccc23)nc2ccc(Cl)cc21 [Compound 786]
18 | 1 fold | 2 fold | 6 fold | 0.07 fold |  |  |  |  |  |  |  |  |  | COC(=O)c1ccc2nc(-c3cccc4ccccc34)n(S(=O)(=O)c3ccc(Cl)cc3)c2c1 [Compound 1386]
19 | 1 fold | 1 fold | 4 fold | 0.03 fold |  |  |  |  |  |  |  |  |  | CN1CCN(C(=O)c2ccc3c(c2)nc(-c2cccc4ccccc24)n3S(=O)(=O)c2cccc(F)c2)CC1 [Compound 1392]
20 | 1 fold | 1 fold | 4 fold | 0.03 fold |  |  |  |  |  |  |  |  |  | CN1CCN(C(=O)c2ccc3nc(-c4cccc5ccccc45)n(S(=O)(=O)c4cccc(F)c4)c3c2)CC1 [Compound 1393]
21 | 1 fold | 1 fold | 2 fold | 0.03 fold |  |  |  |  |  |  |  |  |  | COC(=O)c1ccc2c(c1)nc(-c1cccc3ccccc13)n2S(=O)(=O)c1ccc(C(F)(F)F)cc1 [Compound 1401]
22 | 1 fold | 2 fold | 3 fold | 0.07 fold |  |  |  |  |  |  |  |  |  | COC(=O)c1ccc2nc(-c3cccc4ccccc34)n(S(=O)(=O)c3ccc(C(F)(F)F)cc3)c2c1 [Compound 1402]
23 | 1 fold | 2 fold | 30 fold | 0.07 fold |  |  |  |  |  |  |  |  |  | COC(=O)c1ccc2nc(-c3cccc4ccccc34)n(C(=O)c3ccc(OC(F)(F)F)cc3)c2c1 [Compound 1405]
24 | 1 fold | 1 fold | 4 fold | 0.03 fold |  |  |  |  |  |  |  |  |  | COC(=O)c1ccc2c(c1)nc(-c1cccc3ccccc13)n2Cc1ccc(Cl)cc1 [Compound 1406]
25 | 1 fold | 1 fold | 9 fold | 0.03 fold |  |  |  |  |  |  |  |  |  | COC(=O)c1ccc2nc(-c3cccc4ccccc34)n(Cc3ccc(Cl)cc3)c2c1 [Compound 1407]
26 | 1 fold | 1 fold | 4 fold | 0.03 fold |  |  |  |  |  |  |  |  |  | O=C(c1ccc2c(c1)nc(-c1cccc3ccccc13)n2Cc1ccc(SC(F)(F)F)cc1)N1CCCCC1 [Compound 1411]
